Biological target: USP14 (Homo sapiens, UniProt P54578)
Assay: USP14 Inhibition Assay
Assay type: biochemical
Settings: average value from a minimum of two experimental determinations, read-out: IC50 Category
Text: The activity of the compound described herein to inhibit USP14 can be measured using previously described methodology [B. H. Lee et al. Nature 2010, 467 (9), 179, the contents of which are expressly incorporated by reference herein].
Example 6: USP14 Inhibition Assay

Row | Structure (SMILES) | IC50 [µM]
1 | Cc1cc(C(=O)CN2CCCCC2)c(C)n1-c1ccc(O)cc1 [Compound 7, 1-(1-(4-Hydroxyphenyl)-2,5-dimethyl-1H-pyrrol-3-yl)-2-(piperidin-1-yl)ethanone] | > 5
2 | Cc1cc(C(=O)CN2CCC(OCc3ccccc3)C2)c(C)n1-c1ccc(Cl)cc1 (stereo not shown) [Compound 49, 2-(3-(Benzyloxy)pyrrolidin-1-yl)-1-(1-(4-chlorophenyl)-2,5-dimethyl-1H-pyrrol-3-yl)ethanone] | 0.5 to 5
3 | Cc1cc(C(=O)C[N+]2(C)CCCCC2)c(C)n1-c1ccc(Cl)cc1 [Compound 44, 1-(2-(1-(4-Chlorophenyl)-2,5-dimethyl-1H-pyrrol-3-yl)-2-oxoethyl)-1-methylpiperidin-1-ium Iodide] | > 5
4 | Cc1cc(C(=O)CN2CCCCC2)c(C)n1[C@H]1CC[C@@H](F)CC1 [Compound 32, 1-(1-(cis-4-Fluorocyclohexyl)-2,5-dimethyl-1H-pyrrol-3-yl)-2-(piperidin-1-yl)ethanone] | > 5
5 | Cc1cc(C(=O)CN2CCC(O)CC2)c(C)n1-c1cccc2ccccc12 [Compound 9, 1-(2,5-Dimethyl-1-(naphthalen-1-yl)-1H-pyrrol-3-yl)-2-(4-hydroxypiperidin-1-yl)ethanone] | > 5
6 | Cc1cc(C(=O)CN2CCCC2)c(C)n1-c1ccc(O)cc1 [Compound 19, 1-(1-(4-Hydroxyphenyl)-2,5-dimethyl-1H-pyrrol-3-yl)-2-(pyrrolidin-1-yl)ethanone] | > 5
7 | Cc1cc(C(=O)CN2CCCCC2)c(C)n1-c1ccc(C(=O)OCc2ccccc2)cc1 [Compound 110, trans-Benzyl 4-(2,5-dimethyl-3-(2-(piperidin-1-yl)acetyl)-1H-pyrrol-1-yl)benzoate] | > 5
8 | Cc1cc(C(=O)CN2CCC(O)CC2)c(C)n1-c1ccc(Br)c(Cl)c1 [Compound 59, 1-(1-(4-Bromo-3-chlorophenyl)-2,5-dimethyl-1H-pyrrol-3-yl)-2-(4-hydroxypiperidin-1-yl)ethanone] | 0.5 to 5

The next lines start with the values.

Row | IC50 [µM] | Structure (SMILES)
9 | < 0.5 | Cc1cc(C(=O)CN2CCC(CN)CC2)c(C)n1-c1ccc(C#N)cc1 [Compound 157, 4-(3-(2-(4-(Aminomethyl)piperidin-1-yl)acetyl)-2,5-dimethyl-1H-pyrrol-1-yl)benzonitrile]
10 | > 5 | Cc1cc(C(=O)CN2CCC(O)CC2)c(C)n1C1CCC1 [Compound 36, 1-(1-Cyclobutyl-2,5-dimethyl-1H-pyrrol-3-yl)-2-(4-hydroxypiperidin-1-yl)ethanone]
11 | < 0.5 | Cc1cc(C(=O)CN2CCCCC2)n(C)c1-c1ccc(Cl)cc1 [Compound 96, 1-(5-(4-Chlorophenyl)-1,4-dimethyl-1H-pyrrol-2-yl)-2-(piperidin-1-yl)ethanone]
12 | > 5 | Cc1cc(C(=O)CNCC2COC(C)(C)O2)c(C)n1-c1ccc(C#N)cc1 (stereo not shown) [Compound 102, 4-(3-(2-(((2,2-Dimethyl-1,3-dioxolan-4-yl)methyl)amino)acetyl)-2,5-dimethyl-1H-pyrrol-1-yl)benzonitrile]
13 | < 0.5 | Cc1cc(C(=O)CN2CCCC(CNC(=O)OC(C)(C)C)C2)c(C)n1-c1ccc(C#N)cc1 (stereo not shown) [Compound 158, tert-butyl ((1-(2-(1-(4-cyanophenyl)-2,5-dimethyl-1H-pyrrol-3-yl)-2-oxoethyl)piperidin-3-yl)methyl)carbamate]
14 | 0.5 to 5 | Cc1cc(C(=O)CN2CCC(O)CC2)c(C)n1-c1ccc(F)cc1 [Compound 73, 1-(1-(4-Fluorophenyl)-2,5-dimethyl-1H-pyrrol-3-yl)-2-(4-hydroxypiperidin-1-yl)ethanone]
15 | > 5 | Cc1cc(C(=O)CNCCO)c(C)n1-c1ccc(Cl)cc1 [Compound 101, 1-(1-(4-Chlorophenyl)-2,5-dimethyl-1H-pyrrol-3-yl)-2-((2-hydroxyethyl)amino)ethan-one]
16 | < 0.5 | Cc1c(C(=O)CN2CCCCC2)ccn1-c1ccc(Cl)cc1 [Compound 91, 1-(1-(4-Chlorophenyl)-2-methyl-1H-pyrrol-3-yl)-2-(piperidin-1-yl)ethanone]

Reference: patent publication US11746098B2, “Proteasome activity enhancing compounds” (Proteostasis Therapeutics, Inc., priority 2018, dated 2023)
